Experimental data published in patent US9416143B2, “Griseofulvin derivatives” (PIERRE FABRE MEDICAMENT, priority 2012, dated 2016).
Like-named read-outs stand apart in the source and are kept apart here.

Legend:
Type in all cases: cell-based
[1] = tested on: SCC114 line (oral squamous carcinoma cell line); assay: Cell proliferation (ATPLite) on SCC114 line; conditions: read 72 hours after addition
Method: (§1) The lines N1E115 (ATCC, CRL2263), MDA-MB-231 (ATCC, HTB26) and HSC-1 (Health Science Research Resources Bank, JCRB1015) were cultured in DMEM medium (Dulbecco's Modified Eagle Medium) supplemented with 2 mM of L-Glutamine (Sigma, G7513) and 10% foetal calf serum (Hyclone, SH30109.03) or 20% for the HSC-1 cells. The HCC-1937 (ATCC, CRL2336) and A549 (ATCC, CCL185) lines were cultured in RPMI medium (Roswell Park Memorial Institute Medium) supplemented with 10% foetal calf serum and 2 mM of L-Glutamine. Finally, the SCC114 (DSMZ, ACC662) line was cultured in MEM medium (Minimum Essential Medium Eagle) supplemented with 10% foetal calf serum and 2 mM of L-Glutamine. Initially, in 96-well plates (Perkin Elmer, 6005668), the cells were seeded in their respective culture media with 750 cells per well for N1E115; 1000 cells per well for SCC114 and A549; 2000 cells per well for HCC-1937 and HSC-1; 2500 cells per well for MDA-MB-231. Cascade dilution of each compound was performed in dimethylsulfoxide (DMSO) (Sigma, D8418) from 10 mM stock solutions in 100% DMSO. Each of the dilutions was added to the cells 24 hours after seeding. Under these conditions the final solvent concentration was 0.1% DMSO. Reading of cell proliferation was conducted 72 hours after addition of products with the ATPLite kit (Perkin Elmer, 6016947) and following the manufacturer's directions except in the case of the HCC-1937 line for which this reading was carried out 48 hours after treatment. Analysis of proliferation results was performed by comparing with conditions in which solely the vehicle was added to the cells. The dose-response curves obtained were analysed using Prism 4.03 software (GraphPad Software Inc.) to determine the concentration of each compound allowing 50% inhibition of cell proliferation (IC50).
(§2) As examples, the cytotoxic properties of some compounds of the invention evaluated on the lines A549 (lung cancer cell line), MDA-MB-231 line (mammary adenocarcinoma cell line), N1E115 (mouse brain neuroblastoma cell line), HCC-1937 line (primary ductam breast carcinoma cell line), HSC-1 (cutaneous squamous carcinoma cell line) and SCC114 line (oral squamous carcinoma cell line) are reported in Table 1, as compared with griseofulvin used as control product. The concentration values are expressed in micromolar units (μM).

[2] = tested on: A549 (lung cancer cell line); assay: Cell proliferation (ATPLite) on A549 line; conditions: read 72 hours after addition
Method: as §1, §2

[3] = tested on: HCC-1937 line (primary ductam breast carcinoma cell line); assay: Cell proliferation (ATPLite) on HCC-1937 line; conditions: read 48 hours after treatment
Method: as §1, §2

[4] = tested on: HSC-1 (cutaneous squamous carcinoma cell line); assay: Cell proliferation (ATPLite) on HSC-1 line; conditions: 50% inhibition of cell proliferation, read 72 hours after addition
Method: as §1, §2

[5] = tested on: N1E115 (mouse brain neuroblastoma cell line); assay: Cell proliferation (ATPLite) on N1E115 line; conditions: read 72 hours after addition
Method: as §1, §2

[6] = tested on: MDA-MB-231 line (mammary adenocarcinoma cell line); assay: Cell proliferation (ATPLite) on MDA-MB-231 line; conditions: read 72 hours after addition
Method: as §1, §2

[7] = 50% inhibition of cell proliferation
[8] = 50% inhibition of cell proliferation, read-out: IC50 (μM) HCC1937
[9] = 50% inhibition of cell proliferation, read-out: IC50 (μM) N1E-115
[10] = SCC114, 50% inhibition of cell proliferation
[11] = Homo sapiens, A549, 50% inhibition of cell proliferation
[12] = Homo sapiens, HCC1937, 50% inhibition of cell proliferation
[13] = Mus musculus, N1E-115, 50% inhibition of cell proliferation
[14] = Homo sapiens, MDA-MB-231, 50% inhibition of cell proliferation

Structure (SMILES)	IC50 [1, 7] [µM]	IC50 [2, 7] [µM]	IC50 [3, 8] [µM]	IC50 [4] [µM]	IC50 [5, 9] [µM]	IC50 [6, 7] [µM]	IC50 [1, 10] [µM]	IC50 [2, 11] [µM]	IC50 [3, 12] [µM]	IC50 [5, 13] [µM]	IC50 [6, 14] [µM]
COc1cc(OC)c2c(c1Cl)O[C@]1(C2=O)C2=C(C[C@H](c3ccccc3)O2)C(=O)C[C@H]1C [compound 3, (2R,2′S,6R)-7′-chloro-4′,6′-dimethoxy-6-methyl-2-phenyl-5,6-dihydro-2H,3′H-2,7′-spirobi[benzofuran]-3′,4(3H)-dione]	0.52	0.25	> 10	6	0.21	0.45					
COc1cc(OC)c2c(c1Cl)O[C@]1(C2=O)C(S(=O)(=O)Cc2ccccc2)=CC(=O)C[C@H]1C [compound 145, (1′R,6′R)-2′-(benzylsulfonyl)-7-chloro-4,6-dimethoxy-6′-methyl-3H-spiro[benzofuran-2,1′-cyclohex[2]ene]-3,4′-dione]	0.385	1.5	1.4	1.4	3	2					
COC(=O)c1cc(-c2ccccc2)c2c(n1)C[C@@H](C)[C@]1(Oc3c(Cl)c(OC)cc(OC)c3C1=O)C2=O [compound 152, (2S,7′R)-methyl 7-chloro-4,6-dimethoxy-7′-methyl-3,5′-dioxo-4′-phenyl-7′,8′-dihydro-3H,5′H-spiro[benzofuran-2,6′-quinoline]-2′-carboxylate]				10			0.71	0.48	> 10	0.62	1.6
COc1cc(OC)c2c(c1Cl)O[C@]1(C2=O)C2=C(C[C@@H](c3ccccc3)O2)/C(=N/O)C[C@H]1C [compound 217, (2′S,6R,E)-7′-chloro-4-(hydroxyimino)-4′,6′-dimethoxy-6-methyl-2-phenyl-3,4,5,6-tetrahydro-2H,3′H-2,7′-spirobi[benzofuran]-3′-one]	0.33	0.36	> 10	1.3	0.73	0.63					
CCc1ccc2c(n1)C[C@@H](C)[C@]1(Oc3c(Cl)c(OC)cc(OC)c3C1=O)C2O (stereo partly drawn) [compound 250, (2 S,7′R)-7-chloro-2′-ethyl-5′-hydroxy-4,6-dimethoxy-7′-methyl-7′,8′-dihydro-3H,5′H-spiro[benzofuran-2,6′-quinolin]-3-one]				1.9			0.54	1.4	> 10	1.4	0.35

The next compounds have a lower IC50 [4] than those just listed; values first:

IC50 [1, 7] [µM]	IC50 [2, 7] [µM]	IC50 [3, 8] [µM]	IC50 [4] [µM]	IC50 [5, 9] [µM]	IC50 [6, 7] [µM]	IC50 [1, 10] [µM]	IC50 [2, 11] [µM]	IC50 [3, 12] [µM]	IC50 [5, 13] [µM]	IC50 [6, 14] [µM]	Structure (SMILES)
0.25	0.25	0.43	0.32	1	0.54						COc1cc(OC)c2c(c1Cl)O[C@@]1(C=C([S+]([O-])c3ccccc3)C(=O)C[C@H]1C)C2=O (stereo partly drawn) [compound 95]
			0.72			0.23	0.24	> 10	0.21	0.34	COC(=O)C1=C[C@H](c2ccccc2)C2=C(C[C@@H](C)[C@]3(Oc4c(Cl)c(OC)cc(OC)c4C3=O)C2=O)N1 [compound 149, (2S,4′R,7′R)-methyl 7-chloro-4,6-dimethoxy-7′-methyl-3,5′-dioxo-4′-phenyl-4′,5′,7′,8′-tetrahydro-1′H,3H-spiro[benzofuran-2,6′-quinoline]-2′-carboxylate]
			0.88			0.42	0.55	> 10	0.26	0.34	COc1cc(OC)c2c(c1Cl)O[C@]1(C2=O)C(O)c2ccc(C)nc2C[C@H]1C (stereo partly drawn) [compound 249, (2S,7′R)-7-chloro-5′-hydroxy-4,6-dimethoxy-2′,7′-dimethyl-7′,8′-dihydro-3H,5′H-spiro[benzofuran-2,6′-quinolin]-3-one]
			0.52			0.32	0.25	> 10	0.2	0.38	COC(=O)c1cc(-c2ccccc2)c2c(n1)C[C@@H](C)[C@]1(Oc3c(Cl)c(OC)cc(OC)c3C1=O)[C@H]2O [compound 252, (2S,5′S,7′R)-methyl 7-chloro-5′-hydroxy-4,6-dimethoxy-7′-methyl-3-oxo-4′-phenyl-7′,8′-dihydro-3H,5′H-spiro[benzofuran-2,6′-quinoline]-2′-carboxylate]
